Values quoted from earlier work as cited in US20050113271A1, “Automatic dishwashing detergent with improved glass anti-corrosion properties II” (priority 2002, published 2005).
Where two headings read alike, the source gives them in different places. Blank lines part the entries; values can stand above or below the molecule they belong to.

Solubility (in words) (20° C.): Virtually insoluble (20° C.)
Molecule: Zinc hydroxycarbonate

Molecule: [Cl-].[Cl-].[Zn+2] [Zinc chloride]
Solubility (25° C.): 4320 g/l (25° C.)

Solubility (20° C.): 4 g/l (20° C.)
Molecule: Zinc acetylacetonate
